This is an account of results in ChEMBL document CHEMBL1132661, “Synthesis and preliminary biological evaluation of new alpha-amino amide anticonvulsants incorporating a dextromethorphan moiety” (Bioorg Med Chem Lett, 1999).

Series [1] has as its system Mus musculus. The series can be described thus: Anticonvulsant activity in mice by intraperitoneal administration measured at 30 mins before maximum electroshock seizure induction. The series is classed as functional. The conditions noted are these: ip.
Series [2] is described as follows: Significant mortality was observed in mice caused by the compound. The conditions noted are these: mouse, in vivo. Type of series: ADME.
The target in series [3] is T1, Sodium channel alpha subunits; brain (Types I, II, III) (Rattus norvegicus, UniProt P04775+P04774+P08104). The series can be described thus: Binding of [3H]batrachotoxin (BTX) to rat brain sodium channel.
The subject of series [4] is Mus musculus. The series is described as follows: Anticonvulsant activity in mice by peroral administration measured at 60 mins before maximum electroshock seizure induction. The series is classed as functional. To be noted: po.
For series [5], the target named is T1, Sodium channel alpha subunits; brain (Types I, II, III). The series is described as follows: Binding of [3H]saxitoxin (STX) to rat brain sodium channel.
Series [6] is described as follows: Therapeutic index TI (ED50 rotorod/MES) of the compound. The conditions noted are these: mouse; read-out: TI.
Series [7] deals with Mus musculus. The series can be described thus: Psychomotor side-effect in mice by rotarod test by intraperitoneal administration at 60 mins. Type of series: functional. The conditions noted are these: ip, 1 h.

`COc1ccc2c(c1)C13CCCCC1C(C2)N(C)CC3` (stereo not drawn) [RACEMETHORPHAN]: the figures for the ED50 with Mus musculus [1] and in the series on Mus musculus [4] were 10.1 mg/kg and 12.9 mg/kg, respectively. Further, the LD50 in series [2] is 234 mg/kg. Also, the 50% inhibitory concentration (IC50) was 1.3 µM in series [3] and above 300 µM in series [5].

Turning to `CNC(=O)[C@@H](C)N1CCC23CCCCC2[C@@H]1Cc1ccc(OCc2cccc(F)c2)cc13` (stereo partly specified), the figures for the ED50 with Mus musculus [1] and in the series on Mus musculus [7] were 41.6 mg/kg and 152 mg/kg, respectively. Moreover, the selectivity ratio in series [6] amounted to 4. The IC50 in series [3] was 5.3 µM; in series [5], above 300 µM.

Consider `C[C@H](C(N)=O)N1CCC23CCCCC2[C@@H]1Cc1ccc(OCc2cccc(F)c2)cc13` (stereo partly specified), for which the ED50 in the series with Mus musculus [1] is 18.1 mg/kg; in the series with Mus musculus [7], 176 mg/kg; in the series on Mus musculus [4], 50.8 mg/kg. Besides, the selectivity ratio in series [6] came out at 10. For the same molecule, the IC50 was 2.6 µM in series [3] and above 300 µM in series [5].

Turning to `CS(=O)(=O)O.C[C@H](NCc1ccc(OCc2cccc(F)c2)cc1)C(N)=O` [SAFINAMIDE MESYLATE], the results for the ED50 in the series on Mus musculus [1], in the series with Mus musculus [7] and in the series on Mus musculus [4] were 6.9 mg/kg, 626 mg/kg and 8 mg/kg, respectively. For the same molecule, in series [6], the selectivity ratio is 78. The molecule further yielded an IC50 in series [5] above 300 µM.
